Measurements from patent publication US20140018384A1, “QUINOLINONE DERIVATIVES FOR USE IN THE TREATMENT OF AN AUTOIMMUNE DISEASE AND/OR AN INFLAMMATORY DISEASE” (PRONOXIS AB, priority 2011, published 2014).
Read-outs that look alike come from different tables or passages of the source.

Tested on: PLB-985 cells
Assay: ROS production (isoluminol/HRP luminescence) in PLB-985 cells, Biological Example 1
Type: cell-based
Method: To cells (HL-60 or PLB-985) in HBSS medium was added compound (25 or 50 μM), isoluminol and Horse Radish Peroxidase, fraction II. Luminescence was measured for 10-30 minutes and the area under the […] curve was divided by that from a control experiment to give the activity expressed as fold change.
Each assay indicated below was performed at a different site, at a different time, by different personnel and/or using different cell lines, concentrations and controls. The cell line, concentration of example compound and control used in respect of each assay were as indicated below. The values obtained from these different setups (each using an otherwise identical assay) are given as Activity A, B, C, D or E in Table 5 below. The values are expressed as fold increase of NADPH activity in the presence of the relevant of compound (as indicated below) compared to the relevant control (as indicated below).
Activity A: HL-60 cells; 50 μM compound vs. blank Activity B: PLB-985 cells; 25 μM compound vs. blank Activity C, D and E: PLB-985 cells; 25 μM compound vs. DMSO

[1] = 25 μM compound vs. DMSO, setup C, read-out: Activity C (fold increase of NADPH activity compared to control)
[2] = 25 μM compound vs. DMSO, setup E, read-out: Activity E (fold increase of NADPH activity compared to control)
[3] = 25 μM compound vs. blank, read-out: Activity B (fold increase of NADPH activity compared to control)

COc1ccc(NC(=O)Cn2cc(C(=O)c3ccc(F)cc3)c(=O)c3cc4c(cc32)OCO4)cc1OC [Example 31, N-(3,4-Dimethoxyphenyl)-2-[3-(4-fluorobenzoyl)-6,7-methylenedioxy-4-oxo-1-quinolinyl]acetamide]
fold induction at 25 µM [1]: 49.5

O=C(Cn1cc(C(=O)c2cccc(F)c2)c(=O)c2cc3c(cc21)OCO3)Nc1ccc(Cl)cc1 [Example 32, N-(4-Chlorophenyl)-2-[3-(3-fluorobenzoyl)-6,7-methylenedioxy-4-oxo-1-quinolinyl]acetamide]
fold induction at 25 µM [1]: 47.8

O=C(Cn1cc(C(=O)c2ccc(F)cc2)c(=O)c2cc3c(cc21)OCO3)Nc1ccc(Cl)cn1 [Example 33, N-(5-Chloro-2-pyridyl)-2-[3-(4-fluorobenzoyl)-6,7-methylenedioxy-4-oxo-1-quinolinyl]acetamide]
fold induction at 25 µM [1]: 45.6

O=C(Cn1cc(C(=O)c2cccnc2)c(=O)c2cc3c(cc21)OCO3)Nc1ccc(Cl)cn1 [Example 34, N-(5-Chloro-2-pyridyl)-2-(6,7-methylenedioxy-3-nicotinoyl-4-oxo-1-quinolinyl)acetamide]
fold induction at 25 µM [1]: 27.5

Cc1ccc(C(=O)c2cn(CC(=O)Nc3ccc(N(C)C)cc3)c3cc4c(cc3c2=O)OCO4)cc1C [Example 35]
fold induction at 25 µM [1]: 6.3

O=C(Cn1cc(C(=O)c2ccc(Cl)cc2)c(=O)c2cc3c(cc21)OCO3)Nc1ccc(Cl)cn1 [Example 36, 2-[3-(4-Chlorobenzoyl)-6,7-methylenedioxy-4-oxo-1-quinolinyl]-N-(5-chloro-2-pyridyl)acetamide]
fold induction at 25 µM [1]: 46.4

COc1ccc2c(c1)c(=O)c(C(=O)c1ccc(F)cc1)cn2CC(=O)Nc1ccc(C)cc1 [Example 37, 2-[3-(4-fluorobenzoyl)-6-methoxy-4-oxo-1-quinolinyl]-N-p-tolylacetamide]
fold induction at 25 µM [2]: 8.4

COc1ccc2c(c1)c(=O)c(C(=O)c1ccc(F)cc1)cn2CC(=O)Nc1ccc(C(F)(F)F)cc1 [Example 38, 2-[3-(4-Fluorobenzoyl)-6-methoxy-4-oxo-1-quinolinyl]-N-(4-trifluoromethylphenyl)acetamide]
fold induction at 25 µM [2]: 7

COc1ccc2c(n1)c(=O)c(C(=O)c1ccc(F)cc1)cn2CC(=O)Nc1ccc(C)cc1 [Example 39, 2-[3-(4-Fluorobenzoyl)-6-methoxy-4-oxo-1,5-naphthyridin-1-yl]-N-p-tolylacetamide]
fold induction at 25 µM [2]: 76.2

COc1ccc2c(n1)c(=O)c(C(=O)c1ccc(F)cc1)cn2CC(=O)Nc1ccc(C(F)(F)F)cc1 [Example 40, 2-[3-(4-Fluorobenzoyl)-6-methoxy-4-oxo-1,5-naphthyridin-1-yl]-N-(4-trifluoromethylphenyl)acetamide]
fold induction at 25 µM [2]: 73

COc1cc(OC)c2c(c1)c(=O)c(C(=O)c1ccc(F)cc1)cn2CC(=O)Nc1ccc(Cl)cc1 [Example 42, N-(4-Chlorophenyl)-2-[6,8-dimethoxy-3-(4-fluorobenzoyl)-4-oxo-1-quinolinyl]acetamide]
fold induction at 25 µM [2]: 2.5

COc1cccc2c(=O)c(C(=O)c3ccc(F)cc3)cn(CC(=O)Nc3ccc(Cl)cc3)c12 [Example 43]
fold induction at 25 µM [2]: 3.8

COc1cc(OC)c2c(=O)c(C(=O)c3ccc(F)cc3)cn(CC(=O)Nc3ccc(Cl)cc3)c2c1 [Example 44]
fold induction at 25 µM [2]: 78.1

COc1ccc(NC(=O)Cn2cc(S(=O)(=O)c3ccc(Cl)cc3)c(=O)c3cc4c(cc32)OCO4)cc1 [Example 45, N-p-Anisyl-2-[3-(4-chlorobenzenesulfonyl)-6,7-methylenedioxy-4-oxo-1-quinolinyl]acetamide]
fold induction at 25 µM [1]: 10.7

COc1ccc(NC(=O)Cn2cc(C(=O)c3ccc(C)cc3)c(=O)c3cc4c(cc32)OCO4)cc1 [Example 46, N-p-Anisyl-2-(6,7-methylenedioxy-4-oxo-3-p-toluoyl-1-quinolinyl)acetamide]
fold induction at 25 µM [1]: 40.7
fold induction at 25 µM [3]: 127

COc1ccc(NC(=O)Cn2cc(C(=O)c3ccc(C)c(C)c3)c(=O)c3cc4c(cc32)OCO4)cc1 [Example 47, N-p-Anisyl-2-[3-(3,4-dimethylbenzoyl)-6,7-methylenedioxy-4-oxo-1-quinolinyl]acetamide]
fold induction at 25 µM [1]: 58.4
fold induction at 25 µM [3]: 144

O=C(Cn1cc(C(=O)c2ccccc2)c(=O)c2cc3c(cc21)OCO3)Nc1ccc(Cl)cc1 [Example 48, 2-(3-Benzoyl-6,7-methylenedioxy-4-oxo-1-quinolinyl)-N-(4-chlorophenyl)acetamide]
fold induction at 25 µM [1]: 42.5
fold induction at 25 µM [3]: 81.4

Cc1ccc(C(=O)c2cn(CC(=O)Nc3ccc(Cl)cc3)c3cc4c(cc3c2=O)OCO4)cc1 [Example 49, N-(4-Chlorophenyl)-2-(3-p-toluoyl-6,7-methylenedioxy-4-oxo-1-quinolinyl)acetamide]
fold induction at 25 µM [1]: 56.4
fold induction at 25 µM [3]: 152

Cc1ccc(C(=O)c2cn(CC(=O)Nc3ccc(Cl)cc3)c3cc4c(cc3c2=O)OCO4)cc1C [Example 50, N-(4-Chlorophenyl)-2-[3-(3,4-dimethylbenzoyl)-6,7-methylenedioxy-4-oxo-1-quinolinyl]acetamide]
fold induction at 25 µM [1]: 62.8
fold induction at 25 µM [3]: 163

O=C(Cn1cc(C(=O)c2ccc(Cl)cc2)c(=O)c2cc3c(cc21)OCO3)Nc1ccc(Cl)cc1 [Example 51, 2-[3-(4-Chlorobenzoyl)-6,7-methylenedioxy-4-oxo-1-quinolinyl]-N-(4-chlorophenyl)acetamide]
fold induction at 25 µM [1]: 66.7
fold induction at 25 µM [3]: 174

CCc1ccc(C(=O)c2cn(CC(=O)Nc3ccc(OC)c(OC)c3)c3cc4c(cc3c2=O)OCO4)cc1 [Example 52, N-(3,4-Dimethoxyphenyl)-2-[3-(4-ethylbenzoyl)-6,7-methylenedioxy-4-oxo-1-quinolinyl]acetamide]
fold induction at 25 µM [1]: 55.6
fold induction at 25 µM [3]: 154

CCc1ccc(C(=O)c2cn(CC(=O)Nc3ccc(Cl)cc3)c3cc4c(cc3c2=O)OCO4)cc1 [Example 53, N-(4-Chlorophenyl)-2-[3-(4-ethylbenzoyl)-6,7-methylenedioxy-4-oxo-1-quinolinyl]acetamide]
fold induction at 25 µM [3]: 150

COc1ccc(NC(=O)Cn2cc(C(=O)c3ccc(F)cc3)c(=O)c3cc4c(cc32)OCO4)cc1 [Example 54, N-p-Anisyl-2-[(4-fluorobenzoyl)-6,7-methylenedioxy-4-oxo-1-quinolinyl]acetamide]
fold induction at 25 µM [1]: 61.5
fold induction at 25 µM (25 μM compound vs. DMSO, setup D, read-out: Activity D (fold increase of NADPH activity compared to control)): 13.5
fold induction at 25 µM [3]: 74.2

O=C(Cn1cc(C(=O)c2ccc(F)cc2)c(=O)c2cc3c(cc21)OCO3)Nc1ccc(F)cc1 [Example 55, 2-[3-(4-Fluorobenzoyl)-6,7-methylenedioxy-4-oxo-1-quinolinyl]-N-(4-fluorophenyl)acetamide]
fold induction at 25 µM [1]: 19.6
fold induction at 25 µM [3]: 6.3

COc1cc(NC(=O)Cn2cc(C(=O)c3ccc(Cl)cc3)c(=O)c3cc4c(cc32)OCO4)cc(OC)c1 [Example 56, 2-[3-(4-Chlorobenzoyl)-6,7-methylenedioxy-4-oxo-1-quinolinyl]-N-(3,5-dimethoxyphenyl)acetamide]
fold induction at 25 µM [1]: 4.4
fold induction at 25 µM [3]: 6.4

COc1ccc(C(=O)c2cn(CC(=O)Nc3ccc4c(c3)OCCO4)c3cc4c(cc3c2=O)OCO4)cc1 [Example 58, 2-(3-p-Anisoyl-67-methylenedioxy-4-oxo-1-quinolinyl)-N-(3,4-ethylenedioxyphenyl)acetamide]
fold induction at 25 µM [1]: 3.6
fold induction at 25 µM [3]: 2.5

COc1ccc(C(=O)c2cn(CC(=O)Nc3ccc4c(c3)OCO4)c3cc4c(cc3c2=O)OCO4)cc1 [Example 59, 2-(3-p-Anisoyl-6,7-methylenedioxy-4-oxo-1-quinolinyl)-N-(3,4-methylenedioxyphenyl)acetamide]
fold induction at 25 µM [1]: 13.4
fold induction at 25 µM [3]: 7.6

O=C(Cn1cc(C(=O)c2ccc(Cl)cc2)c(=O)c2cc3c(cc21)OCO3)Nc1ccc2c(c1)OCCO2 [Example 60, 2-[3-(4-Chlorobenzoyl)-6,7-methylenedioxy-4-oxo-1-quinolinyl]-N-(3,4-ethylenedioxyphenyl)acetamide]
fold induction at 25 µM [1]: 33.3
fold induction at 25 µM [3]: 51.8

CCOc1ccc(C(=O)c2cn(CC(=O)Nc3ccc(Cl)cc3)c3cc4c(cc3c2=O)OCO4)cc1 [Example 61, N-(4-Chlorophenyl)-2-[3-(4-ethoxybenzoyl)-6,7-methylenedioxy-4-oxo-1-quinolinyl]acetamide]
fold induction at 25 µM [1]: 28.5
fold induction at 25 µM [3]: 35.9

Cc1ccc(C(=O)c2cn(CC(=O)Nc3ccc(F)cc3)c3cc4c(cc3c2=O)OCO4)cc1 [Example 62, N-(4-Fluorophenyl)-2-(6,7-methylenedioxy-4-oxo-3-p-toluoyl-1-quinolinyl)acetamide]
fold induction at 25 µM [1]: 26.1
fold induction at 25 µM [3]: 51

O=C(Cn1cc(C(=O)c2ccccc2)c(=O)c2cc3c(cc21)OCO3)Nc1ccc(F)cc1 [Example 63, 2-(3-Benzoyl-6,7-methylenedioxy-4-oxo-1-quinolinyl)-N-(4-fluorophenyl)acetamide]
fold induction at 25 µM [1]: 24.3
fold induction at 25 µM [3]: 37.3

O=C(Cn1cc(C(=O)c2ccccc2)c(=O)c2cc3c(cc21)OCO3)Nc1ccc2c(c1)OCO2 [Example 64, 2-(3-Benzoyl-6,7-methylenedioxy-4-oxo-1-quinolinyl)-N-(3,4-methylenedioxyphenyl)acetamide]
fold induction at 25 µM [1]: 27.9
fold induction at 25 µM [3]: 41.1
